Structures can show the parent of a compound that is named as a salt.
Experiments:
[1] = biological target: T1, urease subunit gamma (UreA) (Staphylococcus aureus, UniProt Q6GEE6); assay type: binding
T1 sequence (Q6GEE6 1-100): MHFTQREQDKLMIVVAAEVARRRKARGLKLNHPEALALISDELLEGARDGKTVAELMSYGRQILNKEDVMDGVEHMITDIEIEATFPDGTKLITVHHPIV

[2] = biological target: T1, urease subunit gamma (UreA); assay: DSF titration; assay type: binding

Row | Structure (SMILES) | STD-NMR (individual, group epitope mapping); DSF Tm shift [1] | Kd [2]
1 | CCOc1ccc(/C=C2\NCCc3cc(OCC)c(OCC)cc32)cc1OCC [compound 2, Drotaverine HCl] | Its GEM analysis indicated that CH2-18 received the highest saturation from the protein. | 
2 | O=C(O)c1cccnc1 [compound 11, Nicotinic acid] |  | 70 mM
